# Patent publication US8916565B2, “Pyrrolopyrazine-spirocyclic piperidine amides as modulators of ion channels” (priority 2011, dated 2014)
# Biological target: human NaV subtype, like NaV 1.7 (Homo sapiens, UniProt Q15858)
# Experiment: E-VIPR optical membrane potential assay with electrical stimulation
# Assay type: cell-based
# Conditions: active against one or more sodium channels; Table 3 does not name the assay or NaV subtype; read-out: Binned Activity Data (IC50)
# Description: Assays for Detecting and Measuring NaV Inhibition Properties of Compound E-VIPR Optical Membrane Potential Assay Method with Electrical Stimulation
# Sodium channels are voltage-dependent proteins that can be activated by inducing membrane voltage changes by applying electric fields. The electrical stimulation instrument and methods of use are described in Ion Channel Assay Methods PCT/US01/21652, herein incorporated by reference and are referred to as E-VIPR. The instrument comprises a microtiter plate handler, an optical system for exciting the coumarin dye while simultaneously recording the coumarin and oxonol emissions, a waveform generator, a current- or voltage-controlled amplifier, and a device for inserting electrodes in well. Under integrated computer control, this instrument passes user-programmed electrical stimulus protocols to cells within the wells of the microtiter plate.
# 24 hours before the assay on E-VIPR, HEK cells expressing human NaV subtype, like NaV 1.7, are seeded in 384-well poly-lysine coated plates at 15,000-20,000 cells per well. Other subtypes are performed in an analogous mode in a cell line expressing the NaV of interest. HEK cells are grown in media (exact composition is specific to each cell type and NaV subtype) supplemented with 10% FBS (Fetal Bovine Serum, qualified; GibcoBRL #16140-071) and 1% Pen-Strep (Penicillin-Streptomycin; GibcoBRL #15140-122). Cells are grown in vented cap flasks, in 90% humidity and 10% CO2, to 100% confluence. They are usually split by trypsinization 1:10 or 1:20, depending on scheduling needs, and grown for 2-3 days before the next split.
# Bath 1 buffer. Glucose 10 mM (1.8 g/L), Magnesium Chloride (Anhydrous), 1 mM (0.095 g/L), Calcium Chloride, 2 mM (0.222 g/L), HEPES 10 mM (2.38 g/L), Potassium Chloride, 4.5 mM (0.335 g/L), Sodium Chloride 160 mM (9.35 g/L).
# Hexyl Dye Solution: Bath 1 Buffer+0.5% β-cyclodextrin (make this prior to use, Sigma #C4767), 8 μM CC2-DMPE+2.5 μM DiSBAC6(3). To make the solution Add volume of 10% Pluronic F127 stock equal to volumes of CC2-DMPE+DiSBAC6(3). The order of preparation is first mix Pluronic and CC2-DMPE, then add DiSBAC6(3) while vortexing, then add Bath 1+β-Cyclodextrin.
# 1) Pre-spot compounds (in neat DMSO) into compound plates. Vehicle control (neat DMSO), the positive control (20 mM DMSO stock tetracaine, 125 μM final in assay) and test compounds are added to each well at 160× desired final concentration in neat DMSO. Final compound plate volume will be 80 μL (80-fold intermediate dilution from 1 μL DMSO spot; 160-fold final dilution after transfer to cell plate). Final DMSO concentration for all wells in assay is 0.625%.
# 2) Prepare Hexyl Dye Solution.
# 3) Prepare cell plates. On the day of the assay, medium is aspirated and cells are washed three times with 100 μL of Bath 1 Solution, maintaining 25 μL residual volume in each well.
# 4) Dispense 25 μL per well of Hexyl Dye Solution into cell plates. Incubate for 20-35 minutes at room temp or ambient conditions.
# 5) Dispense 80 μL per well of Bath 1 into compound plates. Acid Yellow-17 (1 mM) is added and Potassium Chloride can be altered from 4.5 to 20 mM depending on the NaV subtype and assay sensitivity.
# 6) Wash cell plates three times with 100 μL per well of Bath1, leaving 25 μL of residual volume. Then transfer 25 uL per well from Compound Plates to Cell Plates. Incubate for 20-35 minutes at room temp/ambient condition
# 7) Read Plate on E-VIPR. Use the current-controlled amplifier to deliver stimulation wave pulses for typically 9 seconds and a scan rate of 400 Hz. A pre-stimulus recording is performed for 0.5 seconds to obtain the un-stimulated intensities baseline. The stimulatory waveform is applied for 9 seconds followed by 0.5 seconds of post-stimulation recording to examine the relaxation to the resting state.
# Sequence of human NaV subtype, like NaV 1.7 (Q15858 whole entry): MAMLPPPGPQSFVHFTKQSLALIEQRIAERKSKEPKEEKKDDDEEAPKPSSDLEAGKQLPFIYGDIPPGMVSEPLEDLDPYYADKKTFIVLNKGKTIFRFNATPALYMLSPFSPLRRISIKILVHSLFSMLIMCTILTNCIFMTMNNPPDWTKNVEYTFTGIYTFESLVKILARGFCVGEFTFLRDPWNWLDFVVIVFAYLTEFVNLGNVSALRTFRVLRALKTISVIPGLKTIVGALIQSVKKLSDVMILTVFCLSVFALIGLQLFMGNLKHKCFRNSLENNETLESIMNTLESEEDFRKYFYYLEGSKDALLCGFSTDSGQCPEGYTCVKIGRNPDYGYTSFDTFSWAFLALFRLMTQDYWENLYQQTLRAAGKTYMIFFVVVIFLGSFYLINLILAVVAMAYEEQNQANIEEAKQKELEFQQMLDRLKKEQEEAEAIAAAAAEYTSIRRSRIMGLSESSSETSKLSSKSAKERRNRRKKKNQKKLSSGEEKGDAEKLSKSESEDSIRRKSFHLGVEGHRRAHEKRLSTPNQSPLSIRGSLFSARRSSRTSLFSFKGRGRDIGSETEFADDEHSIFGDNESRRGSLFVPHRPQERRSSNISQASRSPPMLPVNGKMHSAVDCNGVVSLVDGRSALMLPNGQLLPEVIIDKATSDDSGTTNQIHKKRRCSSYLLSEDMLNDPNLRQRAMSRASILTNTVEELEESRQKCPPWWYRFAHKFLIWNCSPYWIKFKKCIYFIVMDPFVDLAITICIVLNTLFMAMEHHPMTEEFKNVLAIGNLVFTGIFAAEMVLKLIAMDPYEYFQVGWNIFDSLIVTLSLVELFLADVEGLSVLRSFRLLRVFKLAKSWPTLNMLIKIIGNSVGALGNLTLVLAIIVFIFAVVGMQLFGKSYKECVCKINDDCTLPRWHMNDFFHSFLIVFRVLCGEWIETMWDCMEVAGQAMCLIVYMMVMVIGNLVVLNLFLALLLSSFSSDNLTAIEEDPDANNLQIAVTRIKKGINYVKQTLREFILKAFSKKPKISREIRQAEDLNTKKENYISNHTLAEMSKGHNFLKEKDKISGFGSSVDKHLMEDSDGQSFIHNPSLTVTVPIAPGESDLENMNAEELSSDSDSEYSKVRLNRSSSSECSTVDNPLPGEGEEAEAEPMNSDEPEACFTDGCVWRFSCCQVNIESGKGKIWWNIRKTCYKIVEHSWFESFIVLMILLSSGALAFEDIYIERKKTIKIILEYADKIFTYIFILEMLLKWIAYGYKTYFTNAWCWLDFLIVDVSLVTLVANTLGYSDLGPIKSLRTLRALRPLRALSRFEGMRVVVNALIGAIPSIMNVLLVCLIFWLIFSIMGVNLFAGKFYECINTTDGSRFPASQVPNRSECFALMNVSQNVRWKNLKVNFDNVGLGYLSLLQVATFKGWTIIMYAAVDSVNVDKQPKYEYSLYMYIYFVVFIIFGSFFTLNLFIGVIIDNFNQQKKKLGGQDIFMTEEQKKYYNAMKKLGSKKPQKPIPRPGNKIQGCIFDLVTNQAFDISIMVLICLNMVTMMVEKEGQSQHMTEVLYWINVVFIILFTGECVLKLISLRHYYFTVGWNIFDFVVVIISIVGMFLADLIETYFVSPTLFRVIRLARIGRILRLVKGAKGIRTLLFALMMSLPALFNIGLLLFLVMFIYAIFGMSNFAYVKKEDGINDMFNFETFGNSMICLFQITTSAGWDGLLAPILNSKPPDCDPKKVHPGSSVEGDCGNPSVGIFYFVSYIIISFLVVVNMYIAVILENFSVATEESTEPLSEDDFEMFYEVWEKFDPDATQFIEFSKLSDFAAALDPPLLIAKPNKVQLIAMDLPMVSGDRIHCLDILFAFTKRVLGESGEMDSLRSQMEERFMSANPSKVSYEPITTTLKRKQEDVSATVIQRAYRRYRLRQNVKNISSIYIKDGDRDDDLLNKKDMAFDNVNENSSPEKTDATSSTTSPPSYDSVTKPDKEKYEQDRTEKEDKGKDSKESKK
row,SMILES,IC50
1,CC[C@@H](C)Oc1ccc(C(=O)N2CCC3(CC2)c2ccc(C(F)(F)F)n2CCN3C)cc1OC [Compound 727],≤ 2000 nM
2,Cc1cc(C(=O)N2CCC3(CC2)c2ccc(C(=O)C(F)(F)F)n2CCN3C)ccc1Cl [Compound 1],2000 to 5000 nM
3,CN1CCn2c(C(=O)C(F)(F)F)ccc2C12CCN(C(=O)c1ccc(Cc3ccccc3)cc1)CC2 [Compound 71],≤ 2000 nM
4,CCc1ccc(C(=O)N2CCC3(CC2)c2c(F)cc(C(F)(F)F)n2CCN3C)cc1OC [Compound 668],≤ 2000 nM
5,CC(C)Oc1ccc(C(=O)N2CCC3(CC2)c2ccc(C(=O)C4(C)CC4)n2CCN3C)c(F)c1 [Compound 445],≤ 2000 nM
6,Cc1cc(C(=O)N2CCC3(CC2)c2ccc(C(F)(F)F)n2CCN3C)ccc1S(=O)(=O)NC(C)C [Compound 450],≤ 2000 nM
7,C=C(C)Oc1ccc(C(=O)N2CCC3(CC2)c2ccc(C(F)(F)F)n2CCN3C)cc1OC [Compound 751],≤ 2000 nM
8,Cc1cc(C(F)F)n2ncc(C(=O)N3CCC4(CC3)NCCn3c(C(F)(F)F)ccc34)c2n1 [Compound 159],2000 to 5000 nM
9,CNS(=O)(=O)c1ccc(C(=O)N2CCC3(CC2)c2ccc(C(F)(F)F)n2CCN3C)cc1C [Compound 7],≤ 2000 nM
10,CCc1ccc(C(=O)N2CCC3(CC2)c2ccc(C(=O)C(F)(F)F)n2CCN3C)cc1OC [Compound 537],≤ 2000 nM
11,CCCOc1ccc(C(=O)N2CCC3(CC2)c2ccc(C(F)(F)F)n2CCN3C)cc1OC [Compound 190],≤ 2000 nM
12,CN1CCn2c(Cl)ccc2C12CCN(C(=O)c1ccc(OC(F)(F)F)cc1)CC2 [Compound 323],> 5000 nM
13,O=C(c1cccc2cccnc12)N1CCC2(CC1)NCCn1c(C(F)(F)F)ccc12 [Compound 452],2000 to 5000 nM
14,Cc1cc(C(=O)N2CCC3(CC2)c2ccc(C(=O)C(F)(F)F)n2CCN3C)ccc1-c1cnc(N(C)C)nc1 [Compound 621],≤ 2000 nM
15,CC(C)Oc1ccc(C(=O)N2CCC3(CC2)c2ccc(C(=O)C(F)(F)F)n2CCN3C)cc1C(F)(F)F [Compound 676],≤ 2000 nM
16,CCCCOc1ccc(C(=O)N2CCC3(CC2)c2ccc(Cl)n2CCN3C)cc1 [Compound 386],≤ 2000 nM
17,COc1cc(C(=O)N2CCC3(CC2)NC(C)(C)Cn2c(C(C)=O)ccc23)ccc1C(C)(C)C [Compound 353],≤ 2000 nM
18,CCOc1cc(C(=O)N2CCC3(CC2)c2ccc(C(F)(F)F)n2CCN3C)ccc1OC [Compound 730],≤ 2000 nM
19,COc1ccc(C(=O)N2CCC3(CC2)c2ccc(C(=O)C(F)(F)F)n2C(C)CN3C)cc1Cl (centres unmarked) [Compound 747],≤ 2000 nM
20,CC(=O)Nc1ccc(-c2ccc(C(=O)N3CCC4(CC3)c3ccc(C(=O)C(F)(F)F)n3CCN4C)cc2C)cn1 [Compound 653],2000 to 5000 nM
21,CC(C)C(=O)c1ccc2n1CCN(C)C21CCN(C(=O)c2ccc(C(C)(C)O)c(F)c2)CC1 [Compound 183],≤ 2000 nM
22,CN1CCn2c(C(F)(F)F)cc(F)c2C12CCN(C(=O)c1ccc(CC(C)(C)O)cc1)CC2 [Compound 313],≤ 2000 nM
23,Cc1cc(C(=O)N2CCC3(CC2)c2ccc(C(=O)C4CC4)n2CCN3C)ccc1OC(C)C [Compound 70],≤ 2000 nM
24,CC(=O)c1ccc2n1CCN(C)C21CCN(C(=O)c2ccc(OC(C)C)cc2)CC1 [Compound 342],> 5000 nM
25,CN1CCn2c(Cl)ccc2C12CCN(C(=O)c1ccc(COc3ccccc3)cc1)CC2 [Compound 414],2000 to 5000 nM
26,CC(C)Oc1ccc(C(=O)N2CCC3(CC2)NCC(C)n2c(C(=O)C(F)(F)F)ccc23)cc1Cl (centres unmarked) [Compound 324],≤ 2000 nM
27,CCc1ccc(C(=O)N2CCC3(CC2)c2ccc(C(F)(F)F)n2CCN3C)cc1OC [Compound 629],≤ 2000 nM
28,CC(C)Oc1ccc(C(=O)N2CCC3(CC2)c2ccc(C(F)(F)C(F)(F)F)n2CCN3C)cc1CO [Compound 461],≤ 2000 nM

# Second part, the compound after the results:
row,IC50,SMILES
1,≤ 2000 nM,CN1CCn2c(C(=O)C(F)(F)F)ccc2C12CCN(C(=O)c1ccc(C3CCCCC3)cn1)CC2 [Compound 638]
2,> 5000 nM,CCc1ccc(C(=O)N2CCC3(CC2)c2ccc(C(C)=O)n2CCN3C)cc1 [Compound 278]
3,≤ 2000 nM,CN1CCn2c(C(=O)C(F)(F)F)ccc2C12CCN(C(=O)c1ccc(OCC3CC3)cc1)CC2 [Compound 47]
4,> 5000 nM,CCCCOc1cc(C(=O)N2CCC3(CC2)NCCn2c(C(F)(F)F)ccc23)ccc1OC [Compound 241]
5,≤ 2000 nM,CCCCOc1ccc(C(=O)N2CCC3(CC2)c2ccc(C(=O)C(F)(F)F)n2CCN3C)cc1OC [Compound 146]
6,≤ 2000 nM,CC(C)Oc1ccc(C(=O)N2CCC3(CC2)c2ccc(C(=O)C4CC4)n2CCN3C)cc1C(F)(F)F [Compound 69]
7,≤ 2000 nM,CCOc1ccc(C(=O)N2CCC3(CC2)c2ccc(C(=O)C(F)(F)F)n2CCN3C)cc1OCC [Compound 510]
8,≤ 2000 nM,CCN(C)c1ccnc2c(C(=O)N3CCC4(CC3)c3ccc(C(F)(F)F)n3CCN4C)cnn12 [Compound 628]
9,≤ 2000 nM,CCCc1ccc(C(=O)N2CCC3(CC2)c2ccc(C(=O)C(F)(F)F)n2CCN3C)cc1 [Compound 87]
10,≤ 2000 nM,COc1ccc(C(=O)N2CCC3(CC2)NC(C)(C)Cn2c(C(=O)C(F)(F)F)ccc23)nc1C [Compound 490]
11,2000 to 5000 nM,CC(=O)c1ccc2n1CCN(C)C21CCN(C(=O)c2ccc(OC(C)C)cc2F)CC1 [Compound 125]
12,> 5000 nM,COc1cc(C(=O)N2CCC3(CC2)c2ccc(C(C)=O)n2CCN3C)ccc1OC(C)C [Compound 535]
13,≤ 2000 nM,Cc1cc(C(F)F)n2ncc(C(=O)N3CCC4(CC3)c3ccc(C(F)(F)F)n3CCN4C)c2n1 [Compound 371]
14,≤ 2000 nM,CN1CCn2c(C(F)(F)F)ccc2C12CCN(C(=O)c1cccnc1N1CCC(F)C1)CC2 (centres unmarked) [Compound 518]
15,> 5000 nM,CN1CCn2c(C(O)C(F)(F)F)ccc2C12CCN(C(=O)c1ccc(C3CCCCC3)cc1)CC2 (centres unmarked) [Compound 631]
16,> 5000 nM,CC(=O)c1cc2n(c1)CC(C)(C)NC21CCN(C(=O)c2ccc(OC(C)C)c(C)c2)CC1 [Compound 454]
17,≤ 2000 nM,Cc1cc(C(=O)N2CCC3(CC2)c2ccc(C(F)(F)F)n2CCN3C)ccc1S(=O)(=O)NC1CC1 [Compound 28]
18,> 5000 nM,CN1CC(C)(C)n2c(C(=O)C(F)(F)F)ccc2C12CCN(C(=O)c1ccc(C(C)(C)O)c(F)c1)CC2 [Compound 748]
19,≤ 2000 nM,CC(=O)c1ccc2n1C(C)(C)CN(C)C21CCN(C(=O)c2ccc(C3CCCCC3)cc2)CC1 [Compound 361]
20,≤ 2000 nM,CC(=O)c1ccc2n1CCN(C)C21CCN(C(=O)c2ccc(-c3ccccc3)c(C)c2)CC1 [Compound 304]
21,≤ 2000 nM,COc1ccc(C(=O)N2CCC3(CC2)c2ccc(C(=O)C(C)C)n2CCN3C)cc1C [Compound 338]
22,≤ 2000 nM,CCC(=O)N1CCn2c(C(F)(F)F)ccc2C12CCN(C(=O)c1ccc(OC(C)C)c(OC)c1)CC2 [Compound 428]
23,≤ 2000 nM,CC(C)Oc1ccc(C(=O)N2CCC3(CC2)c2ccc(C(F)(F)F)n2CCN3C)cc1Cl [Compound 100]
24,≤ 2000 nM,Cc1cc(C(=O)N2CCC3(CC2)c2ccc(Cl)n2CCN3C)ccc1C(C)(C)O [Compound 10]
25,≤ 2000 nM,Cc1cc(C(=O)N2CCC3(CC2)c2ccc(C(F)(F)F)n2CCN3C)ccc1OCC(C)(C)O [Compound 263]
26,≤ 2000 nM,CCOC(=O)N1CCn2c(C#N)ccc2C12CCN(C(=O)c1ccc(OC(C)C)c(Cl)c1)CC2 [Compound 296]
27,≤ 2000 nM,CC(C)(O)c1ccc(C(=O)N2CCC3(CC2)c2ccc(C(F)(F)F)n2CCN3CC(F)F)cc1 [Compound 354]
28,2000 to 5000 nM,CCc1ccc(C(=O)N2CCC3(CC2)c2ccc(C(=O)C(F)(F)F)n2CCN3C)cc1 [Compound 26]
